PubChem BioAssay AID1389 (Sanford-Burnham Center for Chemical Genomics, 2008)
Active and inactive are the calls of the source.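 Rule for the calls: active = no visible ATF-4 stress protein band on the western blot after compound pretreatment and chemical ER stress; inactive = the rest.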

System: CSM14.1 cells, thapsigargin-induced ATF-4 Western blot
Assay: ER stress ATF-4 upregulation inhibition – CSM14.1 cells, thapsigargin, Western blot, mechanism study for ER stress cell death inhibitors, late-stage follow-up (AID 1389)

COc1ccc(C2CC(=O)C3=C(C2)Nc2ccccc2NC3c2cc(C)ccc2C)cc1 (stereo unspecified)
outcome: active

O=C1CC(c2ccccc2)CC2=C1C(c1c(F)cccc1Cl)Nc1ccccc1N2 (stereo unspecified)
outcome: inactive

COc1ccc(C2CC(=O)C3=C(C2)Nc2ccccc2NC3c2ccccc2C(F)(F)F)cc1OC (stereo unspecified)
outcome: inactive

CCOc1cc(C2Nc3ccccc3NC3=C2C(=O)CC(c2ccc(OC)cc2)C3)cc(Cl)c1O (stereo unspecified)
outcome: inactive

COc1ccc(C2CC(=O)C3=C(C2)Nc2ccccc2NC3c2cccc(C(F)(F)F)c2)cc1OC (stereo unspecified)
outcome: inactive

COc1ccc(C2CC(=O)C3=C(C2)Nc2ccccc2NC3c2cccc(Oc3ccccc3)c2)cc1OC (stereo unspecified)
outcome: inactive

CC1(C)CC(=O)C2=C(C1)Nc1ccccc1NC2c1ccc(-c2ccccc2)cc1 (stereo unspecified)
outcome: inactive

COc1ccc(C2CC(=O)C3=C(C2)Nc2ccccc2NC3c2cccc(Br)c2)cc1OC (stereo unspecified)
outcome: inactive

CSc1ccc(C2Nc3ccccc3NC3=C2C(=O)CC(c2ccccc2)C3)cc1 (stereo unspecified)
outcome: inactive

CCCOc1ccc(C2Nc3ccccc3NC3=C2C(=O)CC(c2ccc(OC)c(OC)c2)C3)cc1 (stereo unspecified)
outcome: active

CCOc1cccc(C2Nc3ccccc3NC3=C2C(=O)CC(c2ccc(OC)cc2)C3)c1 (stereo unspecified)
outcome: inactive
